Test results taken from patent publication US20240002326A1, “COMPOUNDS AND USE THEREOF IN METHODS OF TREATMENT” (The University of Queensland, priority 2016, published 2024).

How the values were obtained:
SOX18-MEF2C interaction = SOX18-MEF2C interaction (Homo sapiens (Human), UniProt P35713); experiment: ALPHAScreen SOX18-MEF2C protein-protein interaction; type: binding; conditions: read-out: SOX18-MEF2C interaction disruption IC50
Text: Proteins were genetically encoded with enhanced GFP (GFP), mCherry and cMyc (myc) tags, and cloned into cell free expression Gateway destination vectors: N-terminal GFP tagged (pCellFree_G03), N-terminal Cherry-cMyc (pCellFree_G07) and C-terminal Cherry-cMyc tagged (pCellFree_G08) (Gagoski et al., 2015). Human RBPJ (BC020780) and MEF2C (BC026341) Open Reading Frames (ORFs) were sourced from the Human ORFeome collection, version 1.1 and 5.1, and the Human Orfeome collaboration OCAA collection (Open Biosystems), as previously described (Sierecki et al., 2013) and cloned at the ARVEC facility, UQ Diamantina Institute. […]
ALPHAScreen was performed as previously described (Sierecki et al., 2014, Sierecki et al., 2013). […] Percentage of interaction was calculated as: (I_cpd/I_DMSO)×100 from 3 independent experiments.
ALPHAScreen was performed as previously described (Sierecki et al., 2014, Sierecki et al., 2013), using the cMyc detection kit and Proxiplate-384 Plus plates (PerkinElmer). […] The ALPHAScreen signal was measured on an Envision Plate Reader (PerkinElmer), using manufacturer's recommended settings (λexc=680/30 nm for 0.18 s, λem=570/100 nm after 37 ms). […]
I is the highest signal level (top of the hook effect curve) and Ineg is the lowest (background) signal level. […] Percentage of interaction was calculated as: […]

HEK293 = experiment: Cytotoxicity assay (Alamar blue), HEK293; type: cell-based; conditions: HEK293, 24 h
Method in brief: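 COS-7 cells in DMEM with 10% FBS; HepG2 and HEK293 in DMEM with 1% FBS. After 24 h plating, serial compound dilutions (0.5% DMSO final) added for 24 h at 37° C. Viability from Alamar blue 5 μM, fluorescence 560/590 nm read after 2 h.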

ovine COX1 = ovine COX1 (Ovis aries (Sheep), UniProt P05979); experiment: COX1 enzymatic assay; type: biochemical; conditions: up to a concentration of 200 μM
Experimental: (§1) COX inhibition activity was measured using COX1 and COX2 inhibitor screening assay kits from Cayman Chemical Company (Ref #701090 and 701080). All compounds were tested in quadruplicate at a single 200 μM concentration in 2% v/v final DMSO. Compounds were preincubated with ovine COX1 or human COX2 at 37° C. for 10 min before incubation with COX substrate arachidonic acid for another 3 min. Reactions were stopped by addition of concentrated hydrochloric acid. Prostanoid standard curve was prepared and enzyme immunoassay performed as per manufacturer's description. […] Prostanoid standards values were plotted as logit (B/B0) versus log concentrations and fitted with linear regression using GraphPad Prism version 6.0. Standard curve linear fit was used to calculate each samples concentrations.

human COX2 = human COX2 (Homo sapiens (Human), UniProt P35354); experiment: COX2 enzymatic assay; type: biochemical; conditions: up to a concentration of 200 μM
Experimental: as §1

ovine COX1, sequence (P05979 25-600): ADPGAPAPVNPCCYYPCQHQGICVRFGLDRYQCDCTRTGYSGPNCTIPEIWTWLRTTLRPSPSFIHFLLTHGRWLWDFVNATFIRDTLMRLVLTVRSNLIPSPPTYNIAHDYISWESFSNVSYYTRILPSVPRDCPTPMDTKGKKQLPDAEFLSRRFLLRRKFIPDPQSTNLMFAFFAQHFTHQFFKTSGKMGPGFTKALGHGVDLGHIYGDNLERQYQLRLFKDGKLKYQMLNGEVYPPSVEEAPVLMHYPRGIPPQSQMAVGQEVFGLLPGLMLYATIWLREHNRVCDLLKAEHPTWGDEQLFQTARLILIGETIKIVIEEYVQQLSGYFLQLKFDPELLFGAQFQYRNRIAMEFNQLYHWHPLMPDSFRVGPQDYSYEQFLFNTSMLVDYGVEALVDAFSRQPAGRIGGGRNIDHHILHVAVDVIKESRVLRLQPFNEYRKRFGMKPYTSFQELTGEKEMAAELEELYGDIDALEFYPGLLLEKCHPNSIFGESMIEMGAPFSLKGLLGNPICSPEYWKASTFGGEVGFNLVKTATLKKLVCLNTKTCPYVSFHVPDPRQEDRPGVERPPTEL
SOX18-MEF2C interaction, sequence (P35713 whole entry): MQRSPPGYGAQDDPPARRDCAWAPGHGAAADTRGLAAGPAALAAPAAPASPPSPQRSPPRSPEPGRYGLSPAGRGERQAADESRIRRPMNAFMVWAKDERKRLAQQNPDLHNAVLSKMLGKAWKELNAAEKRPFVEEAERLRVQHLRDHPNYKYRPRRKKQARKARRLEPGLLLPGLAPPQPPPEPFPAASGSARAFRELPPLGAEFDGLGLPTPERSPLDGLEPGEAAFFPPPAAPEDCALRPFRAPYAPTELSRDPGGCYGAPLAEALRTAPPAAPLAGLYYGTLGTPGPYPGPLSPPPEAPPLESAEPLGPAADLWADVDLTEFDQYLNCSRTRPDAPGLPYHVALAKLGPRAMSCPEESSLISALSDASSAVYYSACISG
human COX2, sequence (P35354 18-604): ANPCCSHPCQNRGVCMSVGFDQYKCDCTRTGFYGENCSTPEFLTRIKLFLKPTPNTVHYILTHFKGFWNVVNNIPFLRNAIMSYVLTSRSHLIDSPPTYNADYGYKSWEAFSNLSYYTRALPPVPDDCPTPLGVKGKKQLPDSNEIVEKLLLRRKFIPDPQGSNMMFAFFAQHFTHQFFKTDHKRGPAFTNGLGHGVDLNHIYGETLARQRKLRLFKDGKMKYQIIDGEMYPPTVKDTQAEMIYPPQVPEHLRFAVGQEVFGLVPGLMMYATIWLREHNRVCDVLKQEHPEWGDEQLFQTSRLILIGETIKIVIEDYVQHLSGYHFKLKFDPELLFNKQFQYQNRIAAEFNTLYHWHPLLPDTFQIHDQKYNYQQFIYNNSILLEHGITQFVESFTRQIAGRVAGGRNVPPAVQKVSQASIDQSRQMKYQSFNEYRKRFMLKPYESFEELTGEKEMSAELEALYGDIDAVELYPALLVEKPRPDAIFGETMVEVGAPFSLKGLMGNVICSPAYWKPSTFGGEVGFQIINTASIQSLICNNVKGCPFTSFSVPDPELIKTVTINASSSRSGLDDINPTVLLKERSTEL

In the case of `O=C(O)c1ccccc1Nc1cccc(C(F)(F)F)c1` [Flufenamic acid, reference compound], the IC50 (SOX18-MEF2C interaction) is reported as 29.1 µM.

Work on `CCN(CC)C(=O)c1c(O)cc(O)cc1CCc1ccc2ccccc2c1` [Sm26, N,N,diethyl-2,4-hydroxy-6-(2-(naphthalen-2-yl)ethyl)benzamide] yielded a CC50 (HEK293) of 23.5 µM.

With `O=C(O)c1c(O)cccc1COCCc1ccccc1` [Sm5] the COX-1 inhibitory activity (ovine COX1) was “None of the SOX18 inhibitor display any COX-1 or COX-2 inhibitory activity” and the COX-2 inhibitory activity (human COX2) was “None of the SOX18 inhibitor display any COX-1 or COX-2 inhibitory activity”.
